# Measurements: patent EP0535528A1, “Antibacterial 5-Nitro-1-methyl-imidazolyl-3-terbutyl-2-hydroxy-aryl-carbinols” (EURORESEARCH S.r.L., priority 1991, dated 1993)
# Legend:
# Swiss female albino mice = assay: Oral and intraperitoneal acute toxicity in mice (LD50, Probits method); assay type: in vivo; conditions: mice
# Protocol: 20 Swiss female albino mice are used for this test of the average weight of 20 g (±2), coming from Nossan breeding .
# Cages: in Makrolon® with saw dust litter, Number of animals per cage: 5 Acclimation period: 1 week Temperature: 22°C (± 2°C) Humidity : 60%, Diet: pellets for mice produced by Nossan firm, Water ad libitum Fast before the treatment: 16 hours
# Oral by gastric route and intraperitoneal.
# The substances to be studied: EU11100, EU11102, EU11103, EU11104 are treated with 0.5% carboxymethylcellulose in spring water, for the oral administration, whereas the same substances are intraperitoneally administered in the form of a physiological solution .
# For each of the above mentioned substances, a mother suspension is prepared having a concentration in the active ingredient of 250 mg/ml for the oral administration, and analogously a mother suspension is prepared for the intraperitoneal administration having a concentration of the desired active principle of 100 mg/ml.
# The following doses are used • a) oral route: 5000 mg/kg • b) intraperitoneal route : 2000 mg/kg
# If mortality is observed at the above mentioned doses, other doses are administered in order to obtain a dose-response curve.
# 5 animals are used for every utilized concentration.
# After the administration of the above substances the animals are kept under observation for 14 days , during which the mortality and the behaviour is observed.
# LD₅₀ is determined on the base of the cumulative mortality observed in the successive 14 days after the administration by using the Probits method.
# Helicobapter pylori [1] = assay: Inhibition halos of the bacterial growth (impregnated disks on agar); assay type: cell-based; conditions: for activity against the Helicobapter pylori strains used: 10 strains; for Inhibition halo (mm), Average: average of 10 strains
# Protocol: Comparison substance: Metronidazole Solubilization of the substances : All the substances to be studied are dissolved at room temperature in DMSO.
# Some commercially available antibiogram disks are so impregnated with the above mentioned compounds that each disk has concentration equal to 10, 1, 0.1, 0.01 µg.
# 10 strains of Helicobapter pylori are used of recent clinical isolation.
# Columbia Blood Agar Base is used, containing 5% of defibrinated horse blood, 2 % of calf serum, 2 vials of Vitox per liter of medium and Vancomicine (10 µg/ml) Trimetoprim lactate(5 µg/ml) and Polimixin B (2.5 U/ml).
# 0.1 ml of a suspension of the different used strains are uniformly distributed onto Petri plates, containing 20 ml of Columbia Blood Agar base, obtained by taking a sample, by means of a platinum loop, of different colonies from a 48 hours culture, grown in anaerobiosis jars with "Gas Pack", without a catalyst and diluted into a physiological solution.
# 4 disks per plate, previously impregnated with the substances under examination, are then placed onto the agar layer of each plate.
# After 48 hours of anaerobiosis incubation, as above described, the inhibition halos of the bacterial growth, produced by the different activity of the substances inside the agar, are evaluated.
# Helicobapter pylori [2] = assay: Minimal inhibiting concentration (agar dilution); assay type: cell-based
# Protocol: Substances under examination: EU11100, EU11102, EU11103, EU11104. Comparison substance: Metronidazole Solubilization of the substances: All the substances to be studied are dissolved at room temperature in DMSO. […] 10 strains of Helicobapter pylori are used of recent clinical isolation […] The sowing of the bacteria, prepared as described in the preceding test is carried out by means a "multi-point inoculator". After 48 hours incubation under the condition described in the preceding test, the plates are examined and the Minimal Inhibiting Concentration is evaluated, namely that dose corresponding to growth absence.
compound,measurement,setting,value
"Cc1cc(C(O)c2ncc([N+](=O)[O-])n2C)c(O)c(C(C)(C)C)c1 (stereo not shown) [EU11103, 5-nitro-1-methyl-imidazolyl-3-terbutyl-2-hydroxy-5 methyl-phenyl-carbinol]",toxicity when intraperitoneally administered,"Swiss female albino mice; intraperitoneal, 2000 mg/kg",not toxic
same,toxicity when orally administered,"Swiss female albino mice; oral, 5000 mg/kg",not toxic
same,activity against the Helicobapter pylori strains used,Helicobapter pylori [1]; 0.1 µg/disk,active against 4 out of 10 strains
same,activity against the Helicobapter pylori strains used,Helicobapter pylori [1]; 1 µg/disk,active against all the Helicobapter pylori used
same,activity against the Helicobapter pylori strains used,Helicobapter pylori [1]; disk test,active against all the Helicobapter pylori strains used
same,"Inhibition halo (mm), Average",Helicobapter pylori [1]; 1 µg/disk,26.7 mm
same,"Inhibition halo (mm), Average",Helicobapter pylori [1]; 10 µg/disk,36.6 mm
same,Inhibition halo (mm) at the concentration (µg/disk),"Helicobapter pylori [1]; strain 1, 0.01 µg/disk",0 mm
same,Inhibition halo (mm) at the concentration (µg/disk),"Helicobapter pylori [1]; strain 1, 1 µg/disk",30 mm
same,Inhibition halo (mm) at the concentration (µg/disk),"Helicobapter pylori [1]; strain 1, 10 µg/disk",40 mm
same,Inhibition halo (mm) at the concentration (µg/disk),"Helicobapter pylori [1]; strain 2, 0.01 µg/disk",0 mm
same,Inhibition halo (mm) at the concentration (µg/disk),"Helicobapter pylori [1]; strain 2, 0.1 µg/disk",0 mm
same,Inhibition halo (mm) at the concentration (µg/disk),"Helicobapter pylori [1]; strain 3, 0.01 µg/disk",0 mm
same,Inhibition halo (mm) at the concentration (µg/disk),"Helicobapter pylori [1]; strain 3, 0.1 µg/disk",0 mm
same,Inhibition halo (mm) at the concentration (µg/disk),"Helicobapter pylori [1]; strain 3, 1 µg/disk",24 mm
same,Inhibition halo (mm) at the concentration (µg/disk),"Helicobapter pylori [1]; strain 3, 10 µg/disk",35 mm
same,Inhibition halo (mm) at the concentration (µg/disk),"Helicobapter pylori [1]; strain 4, 0.01 µg/disk",0 mm
same,Inhibition halo (mm) at the concentration (µg/disk),"Helicobapter pylori [1]; strain 4, 0.1 µg/disk",20 mm
same,Inhibition halo (mm) at the concentration (µg/disk),"Helicobapter pylori [1]; strain 4, 10 µg/disk",44 mm
same,Inhibition halo (mm) at the concentration (µg/disk),"Helicobapter pylori [1]; strain 5, 0.01 µg/disk",0 mm
same,Inhibition halo (mm) at the concentration (µg/disk),"Helicobapter pylori [1]; strain 5, 0.1 µg/disk",0 mm
same,Inhibition halo (mm) at the concentration (µg/disk),"Helicobapter pylori [1]; strain 5, 1 µg/disk",17 mm
same,Inhibition halo (mm) at the concentration (µg/disk),"Helicobapter pylori [1]; strain 5, 10 µg/disk",22 mm
same,Inhibition halo (mm) at the concentration (µg/disk),"Helicobapter pylori [1]; strain 6, 0.01 µg/disk",0 mm
same,Inhibition halo (mm) at the concentration (µg/disk),"Helicobapter pylori [1]; strain 6, 1 µg/disk",32 mm
same,Inhibition halo (mm) at the concentration (µg/disk),"Helicobapter pylori [1]; strain 6, 10 µg/disk",43 mm
same,Inhibition halo (mm) at the concentration (µg/disk),"Helicobapter pylori [1]; strain 7, 0.01 µg/disk",0 mm
same,Inhibition halo (mm) at the concentration (µg/disk),"Helicobapter pylori [1]; strain 7, 0.1 µg/disk",0 mm
same,Inhibition halo (mm) at the concentration (µg/disk),"Helicobapter pylori [1]; strain 7, 1 µg/disk",20 mm
same,Inhibition halo (mm) at the concentration (µg/disk),"Helicobapter pylori [1]; strain 7, 10 µg/disk",28 mm
same,Inhibition halo (mm) at the concentration (µg/disk),"Helicobapter pylori [1]; strain 8, 0.01 µg/disk",0 mm
same,Inhibition halo (mm) at the concentration (µg/disk),"Helicobapter pylori [1]; strain 8, 0.1 µg/disk",21 mm
same,Inhibition halo (mm) at the concentration (µg/disk),"Helicobapter pylori [1]; strain 8, 1 µg/disk",37 mm
same,Inhibition halo (mm) at the concentration (µg/disk),"Helicobapter pylori [1]; strain 8, 10 µg/disk",45 mm
same,Inhibition halo (mm) at the concentration (µg/disk),"Helicobapter pylori [1]; strain 9, 0.01 µg/disk",0 mm
same,Inhibition halo (mm) at the concentration (µg/disk),"Helicobapter pylori [1]; strain 9, 0.1 µg/disk",0 mm
same,Inhibition halo (mm) at the concentration (µg/disk),"Helicobapter pylori [1]; strain 9, 1 µg/disk",22 mm
same,Inhibition halo (mm) at the concentration (µg/disk),"Helicobapter pylori [1]; strain 9, 10 µg/disk",33 mm
same,Inhibition halo (mm) at the concentration (µg/disk),"Helicobapter pylori [1]; strain 10, 0.01 µg/disk",0 mm
same,Inhibition halo (mm) at the concentration (µg/disk),"Helicobapter pylori [1]; strain 10, 0.1 µg/disk",0 mm
same,Inhibition halo (mm) at the concentration (µg/disk),"Helicobapter pylori [1]; strain 10, 1 µg/disk",24 mm
same,MIC50,Helicobapter pylori [2]; 10 strains,0.03 µg/mL
same,MIC90,Helicobapter pylori [2]; 10 strains,0.06 µg/mL
same,MIC range,Helicobapter pylori [2]; 10 strains,0.015 to 0.016 µg/mL
same,MIC values,"Helicobapter pylori [2]; in words, compared with Metronidazole",very low MIC values
same,MIC,Helicobapter pylori [2]; strain 1,0.06 µg/mL
same,MIC,Helicobapter pylori [2]; strain 2,0.06 µg/mL
same,MIC,Helicobapter pylori [2]; strain 3,0.03 µg/mL
same,MIC,Helicobapter pylori [2]; strain 4,0.03 µg/mL
same,MIC,Helicobapter pylori [2]; strain 5,0.03 µg/mL
same,MIC,Helicobapter pylori [2]; strain 6,0.03 µg/mL
same,MIC,Helicobapter pylori [2]; strain 7,0.06 µg/mL
same,MIC,Helicobapter pylori [2]; strain 8,0.06 µg/mL
same,MIC,Helicobapter pylori [2]; strain 9,0.03 µg/mL
same,MIC,Helicobapter pylori [2]; strain 10,0.015 µg/mL
